From patent publication US20110136728A1, “METHODS OF INCREASING BONE FORMATION USING LEPTIN-RELATED PEPTIDES” (priority 2009, published 2011)
“Also recorded” adds a separate entry of the source. Non-standard residues stand in square brackets, D forms with d. Residues, ends and D or L forms follow the SMILES beside them.

Key:
[1] = system: male C57BL/6J wild type mice; experiment: Oral delivery (gavage) in ad libitum fed wild type mice: body weight, food and water intake, serum glucose, serum osteocalcin; assay type: in vivo, mouse
Protocol: (§1) Six week-old male C57BL/6J wild type and ob/ob mice were obtained from Jackson Laboratories (Bar Harbor, Me., USA). The animals were housed individually polycarbonate cages fitted with stainless steel wire lids and air filters, and supported on ventilated racks (Thoren Caging Systems, Hazelton, Pa., USA) in the Albany Medical College Animal Resources Facility. The mice were maintained at a constant temperature (24° C.) with lights on from 07:00 to 19:00, and allowed food and water ad libitum for 6 days following arrival. During the test period, mice were fed ad libitum or calorie restricted to 60% of normal. Water intake was allowed ad libitum.
(§2) On day 1 of the study, and on each day thereafter, a water bottle containing 200 ml of water was added to each cage between 09:00 and 10:00 h. Mice fed ad libitum were given 200 g of pelleted rodent diet (Prolab Rat, Mouse, Hamster 3000, St. Louis, Mo.; 22% crude protein, 5% crude fat, 5% fiber, 6% ash, 2.5% additional minerals) between 09:00 and 10:00 h each day. The mice were weighed once daily between 09:00 and 10:00 h on an Acculab V-333 electronic balance (Cole-Parmer, Vernon Hills, Ill., USA). Calorie-restricted wild type and ob/ob mice received 60% of normal daily intake. Twenty four hours later, food and water remaining in the cages was measured to the nearest 0.1 g and 0.1 ml, respectively. To assure fasting glucose levels on days in which blood glucose was measured, food was removed from the cages between 09:00 and 10:00 h, and replaced immediately before the beginning of the dark cycle.
(§3) Mouse [D-Leu-4]OB3 was prepared commercially as a C-terminal amide by Bachem (Torrance, Calif., USA). The peptide was dissolved in 0.3% Intravail A3® (Aegis Therapeutics, San Diego, Calif. USA) reconstituted in water, and administered by gavage once daily for 10 days at a concentration of 1 mg/200 μl immediately before the start of the dark cycle. Is has previously been shown that this is the optimum concentration of mouse [D-Leu-4]-OB3 and its related bioactive peptide amides, for regulating energy expenditure, glucose levels, and insulin sensitivity in two genetically obese mouse models (see Rozhayskaya-Arena M. et al., Endocrinology 141:2501-2517 (2000); Grasso P. et al. Regulatory Pep. 101:123-129 (2001); Grasso P. et al., Diabetes 48:2204-2209 (1999), Grasso P. et al., Endocrinology 138:1413-1418 (1997); Grasso P. et al., Regulatory Peptides 85:93-100 (1999); and Grasso P. et al., Diabetes 48:2204-2209 (1999)). Vehicle injected control mice received 200 ul of Intravail A3® only.
(§4) Initial blood samples were drawn by snipping the end of the tail of each mouse at the beginning of the study (day 0); subsequent samples were obtained by gently removing the scab. Blood was taken 1 h before the onset of the dark period at the beginning of the study, and after 2, 4, 6, 8, and 10 days of treatment. The blood was applied to a test strip, and glucose levels were measured with a Glucometer Elite glucose meter (Bayer, Elkhart, Ind., USA).
(§5) At the end of the study, the mice were anesthetized with isoflurane (5%) and exsanguinated by cardiac puncture. Euthanasia was confirmed by cervical dislocation. The blood was collected in sterile nonheparinized plastic centrifuge tubes and allowed to stand at room temperature for 1 h. The clotted blood was rimmed from the walls of the tubes with sterile wooden applicator sticks. Individual serum samples were prepared by centrifugation for 30 min at 2600×g in an Eppendorf 5702R, A-4-38 rotor (Eppendorf North America, Westbury, N.Y., USA). The serum samples in each experimental group (n=6) were pooled and stored frozen until assayed for osteocalcin content.
(§6) Serum osteocalcin in the pooled samples was assayed in triplicate with a mouse osteocalcin ELISA kit obtained from Biomedical Technologies, Inc. (Stoughton, Mass., USA) according to the instructions supplied by the manufacturer. […]

[2] = system: calorie restricted male C57BL/6J wild type mice; experiment: Oral delivery (gavage) in calorie restricted (40%) wild type mice: body weight, serum glucose, serum osteocalcin; assay type: in vivo, mouse
Protocol: as §1, §2, §3, §4, §5, §6

[3] = system: ob/ob mouse model; experiment: Earlier study of OB3 and D-amino acid-substituted OB3 analogs: body weight gain, food and water intake, blood glucose; assay type: in vivo
Source text: Single-point D-amino acid substitution was used to study the structure-function relationships of each amino acid residue in OB3, and to increase its efficacy. The restricted domain represented by OB3 contains a functional epitope, which has the ability to mimic at least some of the effects of leptin on energy balance and glucose homeostasis.
The design of peptide ligands involved the introduction of conformational constraints into native sequences by techniques that include, but are not limited to, D-amino acid substitution or cyclization. (Hruby and Bonner, Methods Mol Biol. 35:201-40 (1994)). Systematic replacement of L-amino acids by their D-amino acid isoforms was used to determine the stereostructural requirements of specific residues in a peptide for peptide-receptor interaction, and to assess the contribution of certain secondary structural motifs, e.g., α-helix or β-turn, to the bioactivity of the peptide. (Hruby, Biopolymers 33(7):1073-82 (1993) and Hruby, Life Sci. 52(10):845-55 (1993)). This approach increased peptide resistance to enzymatic hydrolysis, and to enhance the properties of biologically active peptides, including receptor binding, functional potency, and duration of action. (See Fauchere et al., Adv. Drug Res., 23:127-139 (1992); Doherty et al., J. Med. Chem., 36:2585-2594 (1993); Kirby et al., J. Med. Chem., 36:3802-3808 (1993); Morita et al., FEBS Lett., 353:84-88 (1994)).
(See Rozhayskaya-Arena M, et al., Endocrinology 141:2501-2517 (2000); Grasso P et al., Regulatory Pep. 101:123-129 (2001)).

[4] = system: ob/ob mouse model; conditions: Grasso et al., Regu. Pept. 101:123-129 (2001); cited from earlier work
[5] = 1 mg/day, 10 days, gavage in Intravail
[6] = after 10 days, 1 mg/day gavage in Intravail
[7] = day 0, 1 mg/day, 10 days, gavage in Intravail

In the case of `CC(C)C[C@@H](NC(=O)[C@H](CO)NC(=O)[C@H](CS)NC(=O)[C@@H](N)CO)C(=O)N1CCC[C@H]1C(=O)N[C@@H](CCC(N)=O)C(=O)N[C@H](C(N)=O)[C@@H](C)O` [mouse [D-Leu-4]-OB3] (H-SCS[dL]PQT-NH2; N-terminus assumed), the “Body weight (% of initial)” value [1, 5] is reported as 95.6 ± 0.5 % of initial, the Final body weight [1, 5] is reported as 21.6 ± 0.7 g and the Serum osteocalcin [1, 5] is reported as 246.6 ± 6.0 ng/mL. For the same compound, the “daily food intake compared to Intravail treated controls” value ([1]; 10 days gavage) was “not associated with any significant difference in daily food intake”, the “serum glucose after treatment” value ([1]; 10 days gavage) was “significantly (P<0.001) reduced” and the “serum osteocalcin levels compared to Intravail treated controls” value ([1]; 10 days gavage) was “essentially the same; also recorded: slightly elevated”. The “water intake compared to Intravail treated controls” value ([1]; 10 days gavage) was “essentially the same; also recorded: no significant difference in water intake”, the “loss of initial body weight” value ([1]; after 10 days gavage) was 4.4% and the Final serum glucose [1, 6] was 124.5 ± 24.6 mg/dL. The Initial serum glucose ([1]; day 0) was 173.3 ± 7.3 mg/dL, the Initial body weight [1, 7] was 22.6 ± 0.8 g and the “reduction of body weight gain” value ([1]; oral delivery) was 4.4%. The “reduction of food intake” value ([1]; oral delivery) was 6.8%, the “reduction of serum glucose” value ([1]; oral delivery) was 28.2% and the “Body weight (% of initial)” value [2, 5] was 90.0 ± 0.8 % of initial. The Final body weight [2, 5] was 20.3 ± 0.7 g, the Serum osteocalcin [2, 5] was 216.6 ± 0.4 ng/mL and the “serum osteocalcin, effect on decrease caused by calorie restriction” value ([2]; 10 days gavage) was “prevented this decrease; also recorded: significantly (P<0.001) elevated serum osteocalcin levels to levels Seen in Intravail® treated wild type mice fed ad libitum”. The “weight loss compared to calorie restriction with Intravail alone (words)” value ([2]; 10 days gavage) was “did not enhance this weight loss”, the “weight loss compared to calorie restriction with Intravail alone (words)” value ([2]; 10 days gavage, listed as mouse [D-leu-4]-OB3) was “essentially the same” and the Final serum glucose [2, 6] was 134.8 ± 14.8 mg/dL. For the same compound, the Initial serum glucose ([2]; day 0) was 186.7 ± 36.7 mg/dL, the Initial body weight [2, 7] was 22.6 ± 0.8 g and the “effectiveness compared to the other D-amino acid-substituted analogs” value ([3]; compared to OB3, in most of the parameters measured) was “more effective than the other D-amino acid-substituted analogs”. The “Water intake” value ([3]; mouse, in vivo) was “significantly reduced water intake”, the “anorexigenic activity compared with OB3” value ([3]; mouse, in vivo) was “greater anorexigenic activity than OB3” and the “antihyperglycemic effect and its time course” value ([3]; mouse, in vivo) was “lowered blood glucose to levels seen in nondiabetic wild type mice within two days of peptide treatment”. The “potency in reducing body weight gain relative to native OB3” value ([3]; mouse, in vivo) was 2.6 fold and the “tissue sensitivity to insulin” value [4] was “increases tissue sensitivity to insulin”.
